Source: US20020147326A1, “Hexameric fusion proteins and uses therefor” (SmithKline Beecham Corporation, priority 1996, published 2002)

Assays:
[1] = test system: murine T-cell hybridoma cell lines expressing human CD28 (PCD28.1.s2.1, DCL27CD28wt.s2); assay: IL-2 production by CD28 T-cell hybridomas (CTLL-2 bioassay); type: cell-based; details: for IL-2 response: cross-linked with GAH antibody, no CD3 antibody; for level of IL-2 response at near saturation: soluble protein 1 ug/ml (FIG. 20C)
Excerpt: The CD80- and CD86-Igαtp proteins were compared to the corresponding CD80 and CD86-Ig proteins to determine their ability to stimulate cells expressing human CD28 using two murine T-cell hybridoma cell lines expressing human CD28, PCD28.1.s2.1 and DCL27CD28wt.s2. The PCD28.1.s2.1 cell line was described in Example 1, part 3. The DCL27CD28wt.s2 cell line was created by transfection of the DC27 cell line [F. Pages et al., Nature, 369:327-329 (1994); F. Pages et al., J. Biol. Chem., 271(16):9403-9409 (1996)] with the same CD28 expression vector used for the PCD28.1.s2.1 cells [D. Couez et al., Molecular Immunology, 31:47-57 (1994)]. These cell lines were examined for their ability to produce IL-2 in response to activation with CD80- and CD86-Ig in comparison with the corresponding Igαtp fusion proteins. 96-well plates were coated with or without a CD3 antibody together with the CD80 and CD86 fusion proteins. This was accomplished by first incubating the plates with a previously determined suboptimal concentration of hamster […] CD3 antibody (MAb 145-2C11, Boerhinger-Mannheim Biochemicals) for two hours at room temperature (RT) or with just buffer alone, washing the plates with PBS, adding goat anti-human Ig heavy chain (GAH-IgHc, Sigma Chemical Co.) for an additional two hours at RT, washing again and coating with different concentrations of the CD80 or CD86 fusion protein for 16-18 hours at 4° C., washing again, and finally blocking for 30 min. with 0.2% BSA-PBS. T cells (1×10^5/well) were added in 150 μl medium into duplicate wells. For comparison, the soluble fusion proteins and the 248.23.2 CD28 MAb (IgM) [A. Morretta, University of Genova, Italy] were added to non-coated wells. T cells were incubated in the wells for 24 hours at 37° C., and supernatants were collected and evaluated for IL-2 levels in a standard CTLL-2 bioassay [S. M. Gillis et al., J. Immunol., 120:2027 (1978)]. Briefly, 1×10^4 IL-2 dependent CTLL-2 cells (ATCC)/well in 75 μl medium were added to an equal volume of test supernatant and incubated for 24 hours at 37° C. The cells were pulsed with 10 μl of 5 mg/ml MTT (Sigma Chemical Co.) for 4 hours, and lysed with […] 10% SDS/0.01N HCl solution for 14-16 hours. OD570 readings were converted into ng/ml of IL-2 based on a standard curve generated by treating cells with known concentrations of IL-2.
(§1) IL-2 promoter activity and IL-2 levels were measured similarly to that described in parts A and B above, except that proliferation of the reader CTLL-2 cells was measured by ^3H-thymidine incorporation.

[2] = test system: PCD28.1.S2.1 cells (human CD28, lacZ fused to the IL-2 promoter); assay: FDG assay for IL-2 promoter activity (lacZ reporter); type: cell-based, murine; details: added directly to PC28.1.s2.1 cells in solution (FIG. 20A)
Protocol: A second assay for agonist activity measured induction of IL-2 promoter activity, rather than production of IL-2 protein. The PCD28.1.S2.1 cells described above also contain lacZ fused to the IL-2 promoter. Thus, the PCD28.1.S2.1 cell line provides a convenient system for measuring IL-2 promoter activity upon CD28-mediated T cell simulation. T cells were activated as described above for the CTLL-2 assay, spun down, resuspended in 50 μl of media+50 μl of PBS, lysed with 10 μl of 20% Triton X-100, and supplemented with 25 μl of 10 mM FDG (Molecular Probes), a fluorogenic substrate for b-galactosidase. Hydrolysis of FDG first yields fluorescein monogalactoside (FMG) and then the highly fluorescent product fluorescein. Cell lysates were incubated with FDG for 60 min., and the levels of fluorescence were measured by Fluoroscan (MTX Lab Systems, Inc).
as §1

CD28-Ig [3] = target: T1, CD28-Ig (Homo sapiens, UniProt P10747); assay: Surface plasmon resonance (BIAcore) on immobilized CD28-Ig; type: binding; design: native leader and extracellular domain peptide of CD28 and CD80 were grafted onto a human IgG1 heavy chain Fc region; human IgG1 Fc (hinge/CH2/CH3); made in house; host or cells: CHO cells; details: for dissociation from CD28-Ig coated surface: BIAcore, 10 ul/min
Protocol: Covalent attachment was achieved by firstly activating the surface with a 1:1 mixture of 0.1 M solution of N-hydroxysuccinamide and 0.1 M 1-ethyl-3-(3-dimethylaminopropyl)carbodiimide. A solution of CD28-Ig 50 ug/ml in 0.01 M sodium acetate pH 4.7 was then passed over the surface. Unreacted N-hydroxysuccinamide esters were then deactivated with 1 M ethanolamine pH 8.5. The surface was equilibrated with running buffer composed of 20 mM HEPES 150 mM NaCl, pH 7.2, 3 mM EDTA and 0.005% Tween 20.
For comparison of CD80-Igαtp and CD86-Igαtp binding with immobilized CD28-Ig, solutions of CD80-Igαtp and CD86-Igαtp (5 ug/ml) were prepared in running buffer described above. Sample solutions were injected (60 ul) at 10 ul/min. Between samples, the surface was regenerated with a 30 ul injection of Gentle elution buffer (Pierce Chemicals, Rockville, Ill.).

CD28-Ig [4] = target: T1, CD28-Ig; design: Ig fusion partner; details: read-out: approximate Kd of soluble CD80-Ig binding to immobilized CD28-Ig; Linsley et al. 1991; cited from earlier work
CTLA4-Ig = target: T2, CTLA4-Ig (Homo sapiens, UniProt P16410, F162A); assay: Isothermal titration calorimetry, binding to CTLA4-Ig in solution
T2 construct: junction spanning the end of the CTLA4 extracellular domain and the hinge region; human IgG1 Fc (hinge/CH2/CH3); made in house; host or cells: CHO cells (by 'in a similar manner' to CD28-Ig)
Excerpt: The solution binding properties of the hexameric and standard Ig fusion proteins of CD80 and CD86 were compared using isothermal titration calorimetry, essentially as described previously for other proteins [K. Johanson et. al., J. Biol. Chem, 270: 9459-9471 (1995), and references therein].
The error in Kd's is about a factor of 2 and the error in molar binding ratio's is 10-20%. […] The molecular masses of CD80-Igαtp and CD86-Igαtp were estimated as 6× the mass of the respective Ig proteins plus 40,000 Da. contributed by the twelve tailpiece segments.

[5] = added directly to PC28.1.s2.1 cells in solution, CTLL-2 3H-thymidine incorporation (FIG. 20B)
[6] = soluble protein, absence of CD3 crosslinking

T2 sequence (P16410 38-162 F162A): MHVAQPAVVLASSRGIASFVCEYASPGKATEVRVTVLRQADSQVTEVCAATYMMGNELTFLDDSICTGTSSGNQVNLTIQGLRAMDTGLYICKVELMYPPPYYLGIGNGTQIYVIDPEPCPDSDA

Row | off-rate compared with CD80-Igαtp (CD28-Ig [3]; 5 ug/ml) | dissociation from CD28-Ig coated surface (CD28-Ig [3]) | ratio of Igαtp to Ig titration equivalence points (molar ratio) (CTLA4-Ig) | Substance | IL-2 production [1, 5] | IL-2 response [1] | level of IL-2 response at near saturation [1] | IL-2 production [1, 6] | IL-2 promoter activity [2] | Kd (CD28-Ig [4])
1 | higher than that for the CD80 construct | dissociates slowly |  | CD86-Igαtp: CD86 leader and extracellular domain linked to human IgG1 Fc and terminating in human IgA1 tailpiece (αtp) | dose dependent stimulation | increased the IL-2 response | comparable to that observed for stimulation through cross-linking of CD3 with immobilized CD3 antibody | induced IL-2 production | dose dependent stimulation | 
2 |  | dissociates very rapidly |  | CD80-Ig: CD80 leader and extracellular domain grafted onto human IgG1 heavy chain Fc region; monomeric Ig fusion (Ig homodimer) [reference compound] | no stimulation | did not give a response |  | no activity | no stimulation | ~200 nM
3 |  | about three orders of magnitude slower | about 6 | CD80-Igαtp: CD80 leader and extracellular domain linked to human IgG1 hinge/CH2/CH3 and terminating in human IgA1 tailpiece (αtp) | dose dependent stimulation | increased the IL-2 response | comparable to that observed for stimulation through cross-linking of CD3 with immobilized CD3 antibody | induced IL-2 production | dose dependent stimulation | 
